Test results reported in US6803233B2, “Model for Alzheimer's disease and other neurodegenerative diseases” (priority 2000, dated 2004).
“Also recorded” adds a separate entry of the source. Square brackets hold non-standard residues; d marks the D form. Peptide text beside a SMILES is read from it. Nle = CCCC[C@H](N)C(=O)O

Legend:
p35 [1] = assay: Immunoblot of p35 in hippocampal slices from apoE-knockout mice; type: cell-based; details: apoE-knockout mouse slices; mevastatin plus agent
[2] = test system: amyloid precursor protein (APP); assay: Immunoblot of APP (antibody 22C11) in hippocampal slices from apoE-knockout mice; type: cell-based, mouse
Excerpt: Tissues were processed for immunoblotting and assessed by monoclonal antibody 22C11, which recognizes the N-terminal domain of amyloid precursor protein (APP). […] Whether this new product is due to proteolysis or changes in protein maturation is under investigation.

tangle-like structures = assay: AT8 immunostaining of cultured rat hippocampal slices; type: cell-based; details: for number of ZPAD-induced tangles in the presence of the inhibitor: hippocampal slices, ZPAD plus inhibitor, 6 days
Protocol: Cultured slices were stained with anti-phosphorylated tau antibody AT8.
(§1) Cultures of hippocampal slices were prepared from 10-12 days old rats.
Cultured rat hippocampal slices of 12 days in vitro were treated with 20 μM pravastatin for 6 days and processed from immunohistological studies with the monoclonal antibody AT8. The subiculum, CA1 field, and CA3 field of the hippocampus were examined by photomicroscopy.

tau = assay: Immunoblot of tau (tau-1, AT8) in cultured rat hippocampal slices; type: cell-based
Protocol: Immunoblotting was carried out by using anti-non phosphorylated tau antibody, tau-1 or anti-phosphorylated tau antibody, AT8.
as §1

p35 [3] = assay: Immunoblot of p35/p25 in cultured rat hippocampal slices; type: cell-based; details: 6 days
Protocol: Hippocampal slices were collected, homogenized, and subjected to SDS-PAGE electrophoresis. Immunoblots were then probed with anti-p35 sera that were raised against the C-terminal domain of p35.
as §1

TGF-beta = assay: RT-PCR/northern blot of cytokine mRNA in cultured hippocampal slices; type: cell-based
IL-10 = assay: as above; type: cell-based; details: ZPAD 20 μM, mevastatin 20 μM
TNF-alpha = assay: as above; type: cell-based; details: mevastatin 20 μM
Excerpt: FIG. 17. Messenger RNA levels of TNF-alpha are increased by interruption of cholesterol synthesis.
Levels of mRNA for the cytokines were quantified by RT-PCR and northern blot analysis, following protocols outlined in the RT-PCR kit (Ambion Inc.).

MAPK (ERK1/2) = assay: Immunoblot with anti-active MAPK in cultured hippocampal slices; type: cell-based; details: 6 days
microglia = assay: CD11b immunostaining of hippocampus of rats injected daily with statins; type: in vivo, rat; details: male Sprague-Dawley rats, 10 mg/kg i.p. daily for 39 days
Protocol: Brains were then removed, postfixed in perfusate for 5-6 hors, and cryoprotected in 15% sucrose/PB followed by 30% sucrose/PB (12-24 hours each) at 4° C. Coronal sections were cut at 20-30 μm by using a freezing microtome and collected into PBS. Immunostaining was performed as described for the in vitro experiments using monoclonal antibody CD11b that reacts with both active and non-active microglia.

reactive microglia = assay: ED-1 immunocytochemistry of cultured brain explants; type: cell-based, rat; details: 6 days
Protocol: Immunocytochemical studies using the monoclonal antibody ED-1 that recognizes reactive microglia were used at 1:1000 dilution following standard immunohistochemical procedures. Microglial activation was determined by measuring cell numbers, optical density, and size of cell bodies using the program NIH Image. Brain tissue was cultured for 12 days and treated with ZPAD (20 μM) in the presence or absence of PD98059 (50 μM) for 6 days (FIG. 18). Cultured explants were then sliced and stained by using monoclonal antibody ED-1 which recognizes reactive microglia, a classical marker of inflammation. […] Cultured brain explants were then sliced and stained by using monoclonal antibody ED-1, a classical marker for reactive microglia and macrophages.

APP = assay: Immunoblot of APP in hippocampal slices, mevastatin plus kinase inhibitors (Example 8); type: cell-based
tau protein = details: literature report; cited from earlier work
cathepsin D = details: literature report; cited from earlier work

CC(O)(CCO)CC(=O)O (stereo not drawn) [mevalonate]
mevastatin-induced down regulation of p35 in the presence of the agent (p35 [1]): completely blocked | effects of mevastatin on APP in the presence of the agent ([2]; mevastatin plus agent): completely blocked

CC[C@H](C)C(=O)O[C@H]1CCC=C2C=C[C@H](C)[C@H](CC[C@@H]3C[C@@H](O)CC(=O)O3)[C@H]21 [mevastatin]
induction of AT8-immunoreactive tangle-like structures (tangle-like structures; rat hippocampal slices, agent applied for 6 days): moderately increased; also recorded: resulted in tangle-like structures | phosphorylated 33 kDa tau breakdown products (AT8 blot) (tau; rat hippocampal slices): markedly enhanced | levels of p35 (p35 [3]; hippocampal slices): significant decreases; also recorded: rapidly and markedly decreased; also recorded: reduced | mRNA levels of TGF-beta (TGF-beta; ZPAD 20 μM, mevastatin 20 μM): increased | mRNA levels of IL-10 (IL-10): increased | mRNA level of TNF-alpha (TNF-alpha): markedly increase | activated MAPK (ERK1/2) (MAPK (ERK1/2); hippocampal slices): activated; also recorded: increased; also recorded: activation | levels of full length APP ([2]; mevastatin treatment): increased levels | novel APP band with molecular weight slightly lower than native APP ([2]; mevastatin treatment): induced a novel band | levels of full length APP ([2]; mevastatin treatment, listed as Mevastatin): markedly increased | microglial reactions (microglia): induced; also recorded: Induction of microglial reactions

CCCC[C@@H](C=O)NC(=O)[C@H](CC(C)C)NC(=O)[C@H](CC(C)C)NC(C)=O [calpain inhibitor I, N-acetyl-leucyl-leucyl-norleucinal] (Ac-Leu-Leu-[Nle]-aldehyde)
number of ZPAD-induced tangles in the presence of the inhibitor (tangle-like structures): significantly reduced | ZPAD-induced tau fragments (tau 15-35 / tau 29 and tau 40) in the presence of the inhibitor (tau; ZPAD plus inhibitor, 6 days, 2 separate experiments): almost completely blocked | ZPAD-induced conversion of p35 to p25 in the presence of the inhibitor (p35 [3]; ZPAD plus inhibitor): significantly inhibited

COc1cccc(-c2cc(=O)c3ccccc3o2)c1N [PD98059, 2-2(Amino-3-methoxyphenyl)-4H-1-benzopyran-4-one]
number of ZPAD-induced tangles in the presence of the inhibitor (tangle-like structures): significantly reduced | mRNA levels for certain cytokines (FIG. 16) (TGF-beta; PD98059 treatment): decreased | ZPAD-induced reaction of microglia with co-application of the inhibitor (reactive microglia; ZPAD 20 μM plus PD98059 50 μM): completely blocked | reaction of microglia (ED-1 staining) (reactive microglia; ZPAD 20 μM, mevastatin 20 μM or PD98059 50 μM alone): did not induce evident change in microglia | MAPK activation by mevastatin and ZPAD in the presence of the inhibitor (MAPK (ERK1/2)): blocked | effects of mevastatin on APP in the presence of the inhibitor (APP): partially blocked

CCN(CC)CCCC(C)Nc1ccnc2cc(Cl)ccc12 (stereo not drawn) [chloroquine]
29 kDa tau fragment (tau 29) (tau protein): delayed appearance of a 29 kDa fragment | enzymatically active cathepsin D (cathepsin D): increases in enzymatically active cathepsin D
